{"source": "paper PMC6637260", "about": "(2019)", "key": {"[1]": {"test_system": "F21T (DNA, G4) GGGTTAGGGTTAGGGTTAGGG", "test": "FRET melting", "settings": "100 mM KCl; 10 mM lithium cacodylate pH 7.2; 1 µM TPE-Im, 200 nM F21T (5:1)"}, "[2]": {"test_system": "Tel22 (DNA, G4) AGGGTTAGGGTTAGGGTTAGGG", "test": "ITC", "settings": "10 mM Tris, 1 mM EDTA, pH 7.4, 20 °C"}, "[3]": {"test_system": "ds43 (DNA, duplex) CGTCACGTAAATCGGTTAACAAATGGCTTTCGAAGCTAGCTTC/GAAGCTAGCTTCGAAAGCCATTTGTTAACCGATTTACGTGACG", "test": "FRET melting competition", "settings": "100 mM KCl; 10 mM lithium cacodylate pH 7.2; 10 equivalents ds43 lower F21T ΔT1/2 from 19.5 to 7 °C"}}, "data": [{"smiles": "C[n+]1ccn(-c2ccc(C(=C(c3ccc(-n4cc[n+](C)c4)cc3)c3ccc(-n4cc[n+](C)c4)cc3)c3ccc(-n4cc[n+](C)c4)cc3)cc2)c1", "values": [{"measurement": "ΔT1/2", "setting": "[1]", "value": 19.5, "unit": "°C"}, {"measurement": "Ka", "setting": "[2]; 100 mM KCl", "value": "2.4 (±1.0).10^5 M^-1"}, {"measurement": "Ka", "setting": "[2]; 100 mM NaCl", "value": "3.2 (±1.1).10^5 M^-1"}, {"measurement": "binding", "setting": "[3]", "value": "weak"}]}]}
